*1 amine or outer side, *2 acyl side, *3 side chain or, on linkers, in order; H or OH if unused. Where a SMILES comes first, the peptide text is derived from it. Bridges are numbered along the chain shown (N, C = ends). [ ]: non-standard residue; d: D form. X1 = O=C(CC1(S[*:2])CCCCC1)[*:1]
Tests used:
[1] = target: T1, vasopressin stimulated adenylate cyclase (Homo sapiens, UniProt P30518); assay: Vasopressin stimulated adenylate cyclase activity, human kidney medullary tissue; type: biochemical; conditions: read-out: In Vitro (Human) Ki
T1 construct: from tissue; host or cells: human kidney medullary membranes
Description: (§1) Antagonistic activity toward the natural antidiuretic hormone (anti-ADH activity) is determined, in vitro, in the medullary tissue of hog or human kidneys and, in vivo, in the hydropenic rat. The in vitro assay procedures for vasopressin stimulated adenylate cyclase activation or vasopression binding activity are described by F. Stassen et al., J. Pharmacology and Experimental Therapeutics, 223, 50-54 (1982).

[2] = target: T2, vasopressin stimulated adenylate cyclase (Sus scrofa, UniProt P32307); assay: Vasopressin stimulated adenylate cyclase activity, hog kidney medullary membrane; type: biochemical; conditions: antagonism of vasopressin stimulated adenylate cyclase, read-out: In Vitro (Pig) Ki
T2 construct: from tissue; host or cells: hog kidney medullary membranes
Description: as §1
In the test procedure for assay of adenylate cyclase activity, the amount of ^32 P/cAMP formed in the absence of medullary membrane is determined (blank). The blank value is substracted from all experimental data. The compound is tested for its effect on basal adenylate cyclase activity and/or on vasopressin stimulated activity. Each determination is carried out in triplicate. The Ka value is derived from a Lineweaver-Burkeplot. Rel. Vmax =(Vmax drug/Vmax vasopressin)×100. Ki =I/[Ka'/Ka)-1] where I is the concentration of the antagonist, and Ka' and Ka are the concentrations of vasopressin required to give half-maximal activity of adenylate cyclase in the presence and absence of antagonist, respectively.

[3] = target: T3, vasopressin receptors (V2 -receptors) (Sus scrofa, UniProt P32307); assay: 3H-vasopressin binding assay, hog kidney membranes; conditions: competitive inhibition of 3H-vasopressin binding, KB = IC50/(1+L/KD), read-out: In Vitro (Pig) KB
T3 construct: from tissue; host or cells: hog kidney medullary membranes
Description: as §1
In the test procedure for binding assays, the amount of ^3 H-vasopressin bound in the absence and in the presence of an excess of vasopressin (7.5×10^-6 M) is measured in triplicate. These values represent total and non-specific binding, respectively. […] This is the average KD value determined on 3 preparations of hog kidney membranes.

hydropenic rat = assay: Hydropenic rat screen (anti-ADH activity in vivo); conditions: estimated dose delivered ip which reduces Uosm from hydropenic levels to 300 mOsmoles/kg H2O; male rats
Description: as §1
The assay for anti-ADH activity is the hydropenic rat protocol is described below:
Food and water are removed from male rats approximately 18 hours prior to testing. Animals are housed 4 per metabolism cage. At 0 hour, the test compound is administered intraperitoneally to the test group and an equivalent volume of vehicle is administered to both control groups (fasted and non-fasted). Urine volume and osmolality are measured every hour for 4 hours. Test values are recorded as ml of urine excreted (cumulative), mEq/rat electrolyte excreted, mg/rat urea excreted, and osmolality in milli-Osmoles/kg H2 O. A tolerance test is used to determine significance. ED300 is defined as the dose of compound (μg/kg) required to lower urine osmolality to 300 m-Osmoles/kg.

T1 sequence (P30518 whole entry): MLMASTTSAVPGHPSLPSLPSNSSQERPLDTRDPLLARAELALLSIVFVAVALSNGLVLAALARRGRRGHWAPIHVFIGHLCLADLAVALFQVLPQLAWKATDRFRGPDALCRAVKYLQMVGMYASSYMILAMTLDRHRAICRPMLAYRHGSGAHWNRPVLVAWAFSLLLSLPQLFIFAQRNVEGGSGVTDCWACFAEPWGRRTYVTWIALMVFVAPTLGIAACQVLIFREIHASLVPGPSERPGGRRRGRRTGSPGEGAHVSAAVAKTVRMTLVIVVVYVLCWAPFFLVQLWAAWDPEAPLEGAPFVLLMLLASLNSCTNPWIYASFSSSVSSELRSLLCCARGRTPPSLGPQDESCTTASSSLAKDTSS
T3 sequence (P32307 whole entry): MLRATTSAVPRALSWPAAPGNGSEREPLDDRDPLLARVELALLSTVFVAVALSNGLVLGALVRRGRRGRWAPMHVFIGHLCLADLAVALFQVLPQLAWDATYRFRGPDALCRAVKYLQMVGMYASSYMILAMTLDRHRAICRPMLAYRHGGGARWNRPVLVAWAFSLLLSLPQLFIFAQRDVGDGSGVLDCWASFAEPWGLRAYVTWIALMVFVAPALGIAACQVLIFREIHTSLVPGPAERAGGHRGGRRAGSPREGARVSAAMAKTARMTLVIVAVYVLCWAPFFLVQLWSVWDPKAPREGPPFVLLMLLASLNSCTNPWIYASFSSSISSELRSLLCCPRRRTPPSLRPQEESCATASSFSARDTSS
T2 sequence (P32307 whole entry): as above

| Ki [1] | Ki [2] | Kb [3] | SMILES | In Vivo (Rat) ED300 (hydropenic rat) |
| --- | --- | --- | --- | --- |
| 9.8 nM | 2.7 nM | 17 nM | CCOc1ccc(C[C@H]2NC(=O)CC3(CCCCC3)SSC[C@@H](C(=O)N[C@@H](CCCN=C(N)N)C(=O)NCC(N)=O)NC(=O)[C@H](CC(N)=O)NC(=O)[C@H](C(C)C)NC(=O)[C@H](Cc3ccccc3)NC2=O)cc1 [A] ([dY](Et)FVNCRG-NH2; linker N-5 via X1) |  |
|  |  |  | CCOc1ccc(C[C@H]2NC(=O)CC3(CCCCC3)SSC[C@@H](C(=O)N3CCC[C@H]3C(=O)N[C@@H](CCCNC(=N)N)C(=O)NCC(N)=O)NC(=O)[C@H](CC(N)=O)NC(=O)[C@H](C(C)C)NC(=O)[C@H](Cc3ccccc3)NC2=O)cc1 [B, [mercapto-β,cyclopentamethylenepropionic acid)2-(O--ethylD-tyrosine)-4-valine-8-argininevasopressin] ([dY](Et)FVNCPRG-NH2; linker N-5 via X1 (inferred); C-terminus assumed) | 0.011 mg/kg |
